Earlier results on one molecule are cited in patent publication US11590127B2, “Gastro-resistant formulation containing posaconazole” (ALFRED E. TIEFENBACHER (GMBH & CO. KG), priority 2015, dated 2023).

Regarding `CC[C@@H]([C@H](C)O)n1ncn(-c2ccc(N3CCN(c4ccc(OC[C@@H]5CO[C@@](Cn6cncn6)(c6ccc(F)cc6F)C5)cc4)CC3)cc2)c1=O` [Posaconazole], the aqueous solubility result is “low aqueous solubility”. The “temperature above which it degrades” value (thermal degradation) is “above 160 °C”.
